According to US12495798B2, “Nicotinamide compound and herbicidal composition comprising compound” (KOREA RESEARCH INSTITUTE OF CHEMICAL TECHNOLOGY, priority 2019, dated 2025):

How the values were obtained:
Assay type in all cases: in vivo
quack grass = assay: Herbicidal activity test against upland field weeds (soil treatment test); set-up: key to Soil treatment herbicidal activity, quack grass: 0 (no control); 100 (complete control); conditions: scale 0 (no control) to 100 (complete control)
Procedure, shortened: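 Pre-emergence test: seeds or rootstocks were sown in fertilized sandy loam, and the next day the soil surface was sprayed with compound at 50 or 75 g a.i./ha in 50% acetone/0.1% Tween-20. Plants were grown in a greenhouse (30±5 °C, 14/10 h light/dark), then visually scored 0–100 against untreated at 14 d (21 d if needed).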

corn [1] = assay: Phytotoxicity test for upland field crops (foliar treatment test); set-up: key: 0 (no harm); 9 (complete withered)
Procedure, shortened: (§1)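 Greenhouse-grown crops (30±5 °C, 14/10 h light/dark) in soil pots were foliar-sprayed with compound in 33% acetone/0.1% Tween-20 at 19˜300 g a.i./ha, 100 ml per m^2. Injury was graded 0 (no harm) to 9 (complete withered) versus untreated control at 7 and 14 days after treatment, or 21 days if needed.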

cotton [2] = assay: as above; set-up: key: 0 (no harm); 9 (complete withered)
Procedure, shortened: as §1

rice [3] = assay: as above; set-up: key: 0 (no harm); 9 (complete withered)
Procedure, shortened: as §1

soybean [4] = assay: as above; set-up: key: 0 (no harm); 9 (complete withered)
Procedure, shortened: as §1

wheat [5] = assay: as above; set-up: key: 0 (no harm); 9 (complete withered)
Procedure, shortened: as §1

corn [6] = assay: Phytotoxicity test for field crops (soil treatment test); set-up: key: 0 (no harm); 9 (complete withered)
Procedure, shortened: (§2)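 Pre-emergence soil spray one day after sowing in sterilized horticultural soil (pH 6.1, organic matter 1.0%), test compounds diluted in 33% acetone/0.1% Tween-20 to 19˜300 g a.i./ha. Greenhouse at 30±5° C, 14/10 h light/dark. Phytotoxicity scored visually 10 and 20 days after treatment on a 0 (no harm) to 9 (complete withered) scale versus untreated control.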

cotton [7] = assay: as above; set-up: key: 0 (no harm); 9 (complete withered)
Procedure, shortened: as §2

rice [8] = assay: as above; set-up: key: 0 (no harm); 9 (complete withered)
Procedure, shortened: as §2

soybean [9] = assay: as above; set-up: key: 0 (no harm); 9 (complete withered)
Procedure, shortened: as §2

wheat [10] = assay: as above; set-up: key: 0 (no harm); 9 (complete withered)
Procedure, shortened: as §2

[11] = 50 g ai/ha, Corn (7 days after treatment)
[12] = 50 g ai/ha, Corn (14 days after treatment)
[13] = 100 g ai/ha, Corn (7 days after treatment)
[14] = 100 g ai/ha, Corn (14 days after treatment)
[15] = 50 g ai/ha, Cotton (7 days after treatment)
[16] = 50 g ai/ha, Cotton (14 days after treatment)
[17] = 100 g ai/ha, Cotton (7 days after treatment)
[18] = 100 g ai/ha, Cotton (14 days after treatment)
[19] = 50 g ai/ha, Rice (7 days after treatment)
[20] = 50 g ai/ha, Rice (14 days after treatment)
[21] = 100 g ai/ha, Rice (7 days after treatment)
[22] = 100 g ai/ha, Rice (14 days after treatment)
[23] = 50 g ai/ha, Soybean (7 days after treatment)
[24] = 50 g ai/ha, Soybean (14 days after treatment)
[25] = 100 g ai/ha, Soybean (7 days after treatment)
[26] = 100 g ai/ha, Soybean (14 days after treatment)
[27] = 50 g ai/ha, Wheat (7 days after treatment)
[28] = 50 g ai/ha, Wheat (14 days after treatment)
[29] = 100 g ai/ha, Wheat (7 days after treatment)
[30] = 100 g ai/ha, Wheat (14 days after treatment)
[31] = 50 g ai/ha, Corn (10 days after treatment)
[32] = 50 g ai/ha, Corn (20 days after treatment)
[33] = 100 g ai/ha, Corn (10 days after treatment)
[34] = 100 g ai/ha, Corn (20 days after treatment)
[35] = 50 g ai/ha, Cotton (10 days after treatment)
[36] = 50 g ai/ha, Cotton (20 days after treatment)
[37] = 100 g ai/ha, Cotton (10 days after treatment)
[38] = 100 g ai/ha, Cotton (20 days after treatment)
[39] = 50 g ai/ha, Rice (10 days after treatment)
[40] = 50 g ai/ha, Rice (20 days after treatment)
[41] = 100 g ai/ha, Rice (10 days after treatment)
[42] = 100 g ai/ha, Rice (20 days after treatment)
[43] = 50 g ai/ha, Soybean (10 days after treatment)
[44] = 50 g ai/ha, Soybean (20 days after treatment)
[45] = 100 g ai/ha, Soybean (10 days after treatment)
[46] = 100 g ai/ha, Soybean (20 days after treatment)
[47] = 50 g ai/ha, Wheat (10 days after treatment)
[48] = 100 g ai/ha, Wheat (10 days after treatment)
[49] = 100 g ai/ha, Wheat (20 days after treatment)
[50] = 50 g ai/ha, Wheat (20 days after treatment)

Row | Compound | Foliar treatment phytotoxicity, Corn (corn [1]; [11]) | Foliar treatment phytotoxicity, Corn (corn [1]; [12]) | Foliar treatment phytotoxicity, Corn (corn [1]; [13]) | Foliar treatment phytotoxicity, Corn (corn [1]; [14]) | Foliar treatment phytotoxicity, Wheat (wheat [5]; [27]) | Foliar treatment phytotoxicity, Wheat (wheat [5]; [28]) | Foliar treatment phytotoxicity, Wheat (wheat [5]; [29]) | Foliar treatment phytotoxicity, Wheat (wheat [5]; [30]) | Soil treatment phytotoxicity, Corn (corn [6]; [31]) | Soil treatment phytotoxicity, Corn (corn [6]; [32]) | Soil treatment phytotoxicity, Corn (corn [6]; [33]) | Soil treatment phytotoxicity, Corn (corn [6]; [34]) | Soil treatment phytotoxicity, Cotton (cotton [7]; [35]) | Soil treatment phytotoxicity, Cotton (cotton [7]; [36]) | Soil treatment phytotoxicity, Cotton (cotton [7]; [37]) | Soil treatment phytotoxicity, Cotton (cotton [7]; [38]) | Soil treatment phytotoxicity, Rice (rice [8]; [39]) | Soil treatment phytotoxicity, Rice (rice [8]; [40]) | Soil treatment phytotoxicity, Rice (rice [8]; [41]) | Soil treatment phytotoxicity, Rice (rice [8]; [42]) | also measured
1 | Cn1nnc(COCc2nc(C(F)(F)F)ccc2C(=S)Nc2nnnn2C)n1 [Compound No. 2-106, N-(1-methyl-1H-tetrazol-5-yl)-2-(((2-methyl-2H-tetrazol-5-yl)methoxy)methyl)-6-(trifluoromethyl)pyridin-3-carbothioamide] | 5 | 4 | 6 | 7 | 0 | 0 | 0 | 0 | 0 | 0 | 0 | 0 | 4 | 6.5 | 5 | 8 | 8 | 8 | 9 | 9 | Soil treatment herbicidal activity, quack grass (quack grass; 50 g ai/ha): 0; Foliar treatment phytotoxicity, Cotton (cotton [2]; [15]): 5; Foliar treatment phytotoxicity, Cotton (cotton [2]; [16]): 9; Foliar treatment phytotoxicity, Cotton (cotton [2]; [17]): 5; Foliar treatment phytotoxicity, Cotton (cotton [2]; [18]): 9; Foliar treatment phytotoxicity, Rice (rice [3]; [19]): 6; Foliar treatment phytotoxicity, Rice (rice [3]; [20]): 7; Foliar treatment phytotoxicity, Rice (rice [3]; [21]): 6; Foliar treatment phytotoxicity, Rice (rice [3]; [22]): 8; Foliar treatment phytotoxicity, Soybean (soybean [4]; [23]): 5; Foliar treatment phytotoxicity, Soybean (soybean [4]; [24]): 8; Foliar treatment phytotoxicity, Soybean (soybean [4]; [25]): 6; Foliar treatment phytotoxicity, Soybean (soybean [4]; [26]): 8; Soil treatment phytotoxicity, Soybean (soybean [9]; [43]): 0; Soil treatment phytotoxicity, Soybean (soybean [9]; [44]): 0; Soil treatment phytotoxicity, Soybean (soybean [9]; [45]): 0; Soil treatment phytotoxicity, Soybean (soybean [9]; [46]): 0; Soil treatment phytotoxicity, Wheat (wheat [10]; [47]): 0; Soil treatment phytotoxicity, Wheat (wheat [10]; [48]): 0; Soil treatment phytotoxicity, Wheat (wheat [10]; [49]): 1
2 | Cn1nnnc1COCc1nc(C(F)(F)F)ccc1C(=O)Nc1nnnn1C [Compound No. 1-61, N-(1-methyl-1H-tetrazol-5-yl)-2-(((1-methyl-1H-tetrazol-5-yl)methoxy)methyl)-6-(trifluoromethyl)nicotinamide] | 0 | 0 | 0 | 0 | 4 | 3 | 0 | 6 | 0 | 0 | 0 | 0 | 1 | 1 | 2 | 2 | 0 | 1 | 1 | 6 | Soil treatment herbicidal activity, quack grass (quack grass; 50 g ai/ha): 0; Foliar treatment phytotoxicity, Cotton (cotton [2]; [15]): 3; Foliar treatment phytotoxicity, Cotton (cotton [2]; [16]): 6; Foliar treatment phytotoxicity, Cotton (cotton [2]; [17]): 0; Foliar treatment phytotoxicity, Cotton (cotton [2]; [18]): 7; Foliar treatment phytotoxicity, Rice (rice [3]; [19]): 4; Foliar treatment phytotoxicity, Rice (rice [3]; [20]): 6; Foliar treatment phytotoxicity, Rice (rice [3]; [21]): 5; Foliar treatment phytotoxicity, Rice (rice [3]; [22]): 6; Foliar treatment phytotoxicity, Soybean (soybean [4]; [23]): 6; Foliar treatment phytotoxicity, Soybean (soybean [4]; [24]): 9; Foliar treatment phytotoxicity, Soybean (soybean [4]; [25]): 0; Foliar treatment phytotoxicity, Soybean (soybean [4]; [26]): 9; Soil treatment phytotoxicity, Soybean (soybean [9]; [43]): 0; Soil treatment phytotoxicity, Soybean (soybean [9]; [45]): 3; Soil treatment phytotoxicity, Soybean (soybean [9]; [46]): 6; Soil treatment phytotoxicity, Wheat (wheat [10]; [47]): 0; Soil treatment phytotoxicity, Wheat (wheat [10]; [50]): 0; Soil treatment phytotoxicity, Wheat (wheat [10]; [48]): 0; Soil treatment phytotoxicity, Wheat (wheat [10]; [49]): 0
3 | CN(Cc1nnn(C)n1)c1nc(C(F)(F)F)ccc1C(=O)Nc1nnnn1C [Compound No. 2-26, 2-(methyl((2-methyl-2H-tetrazol-5-yl)methyl)amino)-N-(1-methyl-1H-tetrazol-5-yl)-6-(trifluoromethyl)nicotinamide] | 0 | 0 | 0 | 0 | 1 | 0 | 1 | 0 | 0 | 0 | 0 | 0 | 1 | 4 | 1 | 4 | 3 | 9 | 6 | 9 | Soil treatment herbicidal activity, quack grass (quack grass; 75 g ai/ha): 0; Foliar treatment phytotoxicity, Cotton (cotton [2]; [15]): 1; Foliar treatment phytotoxicity, Cotton (cotton [2]; [16]): 4; Foliar treatment phytotoxicity, Cotton (cotton [2]; [17]): 2; Foliar treatment phytotoxicity, Cotton (cotton [2]; [18]): 4; Foliar treatment phytotoxicity, Soybean (soybean [4]; [23]): 3; Foliar treatment phytotoxicity, Soybean (soybean [4]; [24]): 9; Foliar treatment phytotoxicity, Soybean (soybean [4]; [25]): 4; Foliar treatment phytotoxicity, Soybean (soybean [4]; [26]): 9; Soil treatment phytotoxicity, Soybean (soybean [9]; [43]): 6; Soil treatment phytotoxicity, Soybean (soybean [9]; [44]): 4; Soil treatment phytotoxicity, Soybean (soybean [9]; [45]): 7; Soil treatment phytotoxicity, Soybean (soybean [9]; [46]): 7; Soil treatment phytotoxicity, Wheat (wheat [10]; [47]): 0; Soil treatment phytotoxicity, Wheat (wheat [10]; [50]): 0; Soil treatment phytotoxicity, Wheat (wheat [10]; [48]): 0; Soil treatment phytotoxicity, Wheat (wheat [10]; [49]): 0
4 | Cn1nnc(CSCc2nc(C(F)(F)F)ccc2C(=O)N(C(=O)c2ccccc2)c2nnnn2C)n1 [Compound No. 2-109, N-benzoyl-N-(1-methyl-1H-tetrazol-5-yl)-2-((((2-methyl-2H-tetrazol-5-yl)methyl)thio)methyl)-6-(trifluoromethyl)nicotinamide] | 0 | 0 | 0 | 0 | 2 | 2 | 3 | 3 | 0 | 0 | 1 | 0 | 0 | 0 | 0 | 1 | 0 | 0 | 0 | 0 | Soil treatment herbicidal activity, quack grass (quack grass; 50 g ai/ha): 0; Soil treatment phytotoxicity, Soybean (soybean [9]; [44]): 1; Soil treatment phytotoxicity, Soybean (soybean [9]; [46]): 0; Soil treatment phytotoxicity, Wheat (wheat [10]; [47]): 0; Soil treatment phytotoxicity, Wheat (wheat [10]; [50]): 0; Soil treatment phytotoxicity, Wheat (wheat [10]; [48]): 0; Soil treatment phytotoxicity, Wheat (wheat [10]; [49]): 0
